Laboratory results from US20220183976A1, “COMPOSITIONS OF DISPERSED PHASE FOR PREPARATION OF APIXABAN-LOADED MICROSPHERES AND BIOCOMPATIBLE POLYMER-BASED APIXABAN-LOADED MICROSPHERES PREPARED THEREFROM” (HLB PHARMACEUTICAL CO., LTD., priority 2019, published 2022).

Experiment: Dissolution of Apixaban in non-halogen and halogen organic solvents
Format: physicochemical
Procedure: 25 mg of Apixaban was added to 1 mL of each of ethyl acetate, ethyl formate, methyl propionate, and ethanol and stirred. As a result, it was confirmed that Apixaban was not dissolved in non-halogen organic solvents (FIG. 1).
25 mg of Apixaban was dissolved in 1 mL of dichloromethane, and the mixture was photographed after 12 hours.

Dissolution of Apixaban in non-halogen organic solvents (25 mg in 1 mL of each of ethyl acetate, ethyl formate, methyl propionate, ethanol, stirred): not dissolved
Apixaban concentration in dichloromethane at which recrystallization occurs (dichloromethane): ≥ 10 mg/mL
SMILES: COc1ccc(-n2nc(C(N)=O)c3c2C(=O)N(c2ccc(N4CCCCC4=O)cc2)CC3)cc1 [Apixaban]
Dissolution of Apixaban in halogen organic solvent (25 mg in 1 mL of dichloromethane, photographed after 12 hours): completely dissolved in the beginning, but after a certain time, crystals were formed
